The text below walks through data of ChEMBL document CHEMBL1140102, “Novel A-ring and B-ring modified combretastatin A-4 (CA-4) analogues endowed with interesting cytotoxic activity” (J Med Chem, 2008).

A short description of assay [1]: Displacement of [3H]colchicine from tubulin by scintillation proximity assay. (Displacement assays read how much labelled ligand stays bound in the presence of the test substance.)
A further assay deals with BMEC. Kind of assay: Cytotoxicity against BMEC by sulforhodamine B test. Format: cell-based. As to conditions: Bos taurus. (In general: In SRB staining, fixed cells bind dye roughly in proportion to their protein.)
In a further assay the test system is NCI-H460. Kind of assay: Cytotoxicity against human H460 cells by sulforhodamine B test. It is filed as functional, cell-based.
The subject of assay [2] is HT-29. The assay is described as follows: Cytotoxicity against human HT29 cells by sulforhodamine B test. Format: functional, cell-based.
The test system of assay [3] is HT-29. The assay is described as follows: Cell cycle arrest in human HT29 cells assessed as accumulation at G2/M phase at 0.5 uM after 24 hrs by flow cytometry assay. It is filed as functional. (In general: A flow cytometer gives signals particle by particle.)
Assay [4] deals with HT-29. The assay is described as follows: Cell cycle arrest in human HT29 cells assessed as accumulation at S phase at 0.5 uM after 24 hrs by flow cytometry assay. Format: functional.
Assay [5] has as its system HT-29. Kind of assay: Cell cycle arrest in human HT29 cells assessed as accumulation at G0/G1 phase at 0.5 uM after 24 hrs by flow cytometry assay. It is filed as functional.

Molecules are shown by their SMILES. Bounds are passed on as bounds.

In the case of `COc1cc(/C=C\c2cc(O)c3ccsc3c2)cc(OC)c1`, the half-maximal inhibitory concentration (IC50) (in general, the point on the concentration scale where inhibition reaches its midpoint) is 3800 nM in assay [1] and 110 nM in the assay with BMEC.

In the case of `COc1ccc(/C=C/c2cc(OC)c3ccoc3c2)cc1O`, the IC50 was 6200 nM in assay [1] and over 10000 nM in the assay on BMEC.

On to `COc1cc(/C=C\c2cc(O)c3ccsc3c2)cc2c1OCO2`, for which the IC50 was determined as 4900 nM in assay [1] and 880 nM in the assay on BMEC.

On to `COc1cc(/C=C\c2cc(O)c3ccoc3c2)cc(OC)c1`, for which the IC50 was 4000 nM in assay [1] and 800 nM in the assay on BMEC.

On to `COc1ccc(/C=C\c2cc(OC)c3ccsc3c2)cc1O`, for which the IC50 was 20 nM in assay [1], 17 nM in the assay on BMEC, 13 nM in the assay with NCI-H460 and 260 nM with HT-29 [2].

In the case of `COc1ccc(/C=C\c2cc(OC)c3occc3c2)cc1O`, the IC50 in assay [1] amounted to 50 nM; with BMEC it was 35 nM; with NCI-H460, 12 nM; in the assay with HT-29 [2], 590 nM.

Turning to `COc1cc(/C=C\c2cc(O)c3ccsc3c2)cc2sccc12`, the IC50 in the assay with BMEC was 250 nM; in the assay on NCI-H460, 312 nM.

In the case of `COc1ccc(/C=C\c2cc(OC)c3ccsc3c2)cc1N.Cl`, the IC50 came to 6200 nM in assay [1], 20 nM in the assay on BMEC, 19 nM in the assay with NCI-H460 and 21 nM with HT-29 [2]. The figures for the Activity in the assay on HT-29 [3], in the assay with HT-29 [4] and with HT-29 [5] were 50%, 22% and 28%, respectively.

As to `COc1ccc(/C=C\c2cc(OC)c3ccoc3c2)cc1O`, the IC50 turned out to be 20 nM in assay [1], 35 nM in the assay on BMEC, 19 nM with NCI-H460 and 420 nM in the assay on HT-29 [2].

Take `COc1ccc(/C=C\c2ccc3c(c2)C(C)(C)CCC3(C)C)cc1O`: the IC50 in the assay on BMEC was over 10000 nM.

On to `COc1ccc(/C=C\c2cc(OC)c3ccsc3c2)cc1`, for which the figures for the IC50 in the assay on BMEC and in the assay on NCI-H460 were 123 nM and 110 nM, respectively.

As to `COc1cc(/C=C\c2cc(O)c3ccoc3c2)cc2c1OCO2`, the IC50 in assay [1] is 7700 nM; in the assay on BMEC, over 3000 nM.

`COc1cc2c(c(OC)c1OC)-c1ccc(OC)c(=O)cc1[C@@H](NC(C)=O)CC2` [COLCHICINE] yielded an IC50 in assay [1] of 1700 nM.

In the case of `COc1ccc(/C=C\c2cc(OC)c(OC)c(OC)c2)cc1O` [COMBRETASTATIN A4], the IC50 in assay [1] stood at 100 nM; in the assay with BMEC, 3.7 nM; in the assay on NCI-H460, 1.2 nM; in the assay with HT-29 [2], 118 nM.

As for `COc1ccc(/C=C\c2cc(OC)c3c(c2)OCO3)cc1O` [Combretastatin A-2], the IC50 with BMEC is 48 nM; in the assay with NCI-H460 it was 40 nM; in the assay with HT-29 [2], over 1000 nM.
